Calls of active or inactive are those of the source. The rule behind the calls is not given here.
Assays:
[1] = molecular target: 5-hydroxytryptamine receptor 1A (Homo sapiens) (UniProt P08908); assay: 5-HT1A Eurofins-Cerep binding assay; set-up: ligand concentration 0.5 nM; settings: Compound concentration 10.0 uM
[2] = molecular target: 5-hydroxytryptamine receptor 2A (Homo sapiens) (UniProt P28223); assay: Agonist activity in the Eurofins Cerep SafetyScreen44 (BI) against 5HT2AH_AGON by Scintillation counting (Cerep_471); settings: Compound concentration 10.0 uM
[3] = molecular target: 5-hydroxytryptamine receptor 2B (Homo sapiens) (UniProt P41595); assay: 5-HT2B Eurofins-Cerep binding assay; settings: Compound concentration 10.0 uM
[4] = molecular target: 5-hydroxytryptamine receptor 3A (Homo sapiens) (UniProt P46098); assay: 5-HT3 Eurofins-Cerep binding assay; set-up: ligand concentration 0.5 nM; settings: Compound concentration 10.0 uM
[5] = molecular target: Adenosine receptor A2a (Homo sapiens) (UniProt P29274); assay: A2A Eurofins-Cerep binding assay; set-up: ligand concentration 6 nM
[6] = molecular target: Beta-1 adrenergic receptor (Homo sapiens) (UniProt P08588); assay: beta 1 Eurofins-Cerep binding assay; set-up: ligand concentration 0.3 nM
[7] = molecular target: Beta-2 adrenergic receptor (Homo sapiens) (UniProt P07550); assay: beta 2 Eurofins-Cerep binding assay
Rattus norvegicus [8] = species on record: Rattus norvegicus; assay: Activity against BZD/CENTR/R in the Eurofins Cerep SafetyScreen44 (BI) by Radioactive Assay (Cerep_28); type: protein-complex assay
[9] = molecular target: T1, Cholecystokinin receptor type A (Homo sapiens) (UniProt P32238); assay: CCK1 (CCKA) Eurofins-Cerep binding assay; set-up: ligand concentration 0.08 nM
T1 sequence (whole entry): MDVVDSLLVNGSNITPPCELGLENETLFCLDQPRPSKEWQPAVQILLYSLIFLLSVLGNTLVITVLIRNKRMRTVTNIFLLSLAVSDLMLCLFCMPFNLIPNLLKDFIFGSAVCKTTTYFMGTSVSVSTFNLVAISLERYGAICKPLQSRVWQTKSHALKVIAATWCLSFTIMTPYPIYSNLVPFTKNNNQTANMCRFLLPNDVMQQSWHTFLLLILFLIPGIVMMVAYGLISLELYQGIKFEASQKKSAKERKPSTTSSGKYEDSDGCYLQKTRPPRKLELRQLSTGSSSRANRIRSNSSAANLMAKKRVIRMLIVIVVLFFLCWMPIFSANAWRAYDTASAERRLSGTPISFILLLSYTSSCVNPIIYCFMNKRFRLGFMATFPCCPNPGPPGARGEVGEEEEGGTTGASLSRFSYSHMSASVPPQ

[10] = molecular target: D(1A) dopamine receptor (Homo sapiens) (UniProt P21728); assay: D1 Eurofins-Cerep binding assay; set-up: ligand concentration 0.3 nM; settings: Compound concentration 10.0 uM
[11] = molecular target: D(2) dopamine receptor (Homo sapiens) (UniProt P14416); assay: Agonist activity in the Eurofins Cerep SafetyScreen44 (BI) against D2SH_AGON by Scintillation counting (Cerep_1322); settings: Compound concentration 10.0 uM
[12] = molecular target: Sodium-dependent dopamine transporter (Homo sapiens) (UniProt Q01959); assay: dopamine transporter Eurofins-Cerep binding assay; settings: Compound concentration 10.0 uM
[13] = molecular target: Delta-type opioid receptor (Homo sapiens) (UniProt P41143); assay: delta (DOP) Eurofins-Cerep binding assay; set-up: ligand concentration 0.5 nM; settings: Compound concentration 10.0 uM
[14] = molecular target: Endothelin-1 receptor (Homo sapiens) (UniProt P25101); assay: ETA Eurofins-Cerep binding assay; set-up: ligand concentration 0.03 nM; settings: Compound concentration 10.0 uM
[15] = molecular target: Glucocorticoid receptor (Homo sapiens) (UniProt P04150); assay: GR Eurofins-Cerep binding assay; settings: Compound concentration 10.0 uM
[16] = molecular target: Histamine H1 receptor (Homo sapiens) (UniProt P35367); assay: H1 Eurofins-Cerep binding assay; set-up: ligand concentration 1 nM; settings: Compound concentration 10.0 uM
[17] = molecular target: Histamine H2 receptor (Homo sapiens) (UniProt P25021); assay: H2 Eurofins-Cerep binding assay; set-up: ligand concentration 0.075 nM; settings: Compound concentration 10.0 uM
hERG (KCNH2) = hERG (KCNH2) (Homo sapiens, UniProt Q12809); assay: Inhibitor of HERG_DOFETILIDE in the Eurofins Cerep SafetyScreen44 (BI) by Scintillation counting (Cerep_4094); set-up: scale not given: the % may be the effect or the level left; settings: probe [3H]dofetilide, compound concentration 10 uM, read-out: % Ctrl
Rattus norvegicus [18] = species on record: Rattus norvegicus; assay: KV channel Eurofins-Cerep binding assay; set-up: ligand concentration 0.01 nM; settings: Compound concentration 10.0 uM
[19] = molecular target: Tyrosine-protein kinase Lck (Homo sapiens) (UniProt P06239); assay: Inhibitor of LCK_CE in the Eurofins Cerep SafetyScreen44 (BI) by lanthanide chelation excitation (Cerep_2906); settings: Compound concentration 10.0 uM
[20] = molecular target: Muscarinic acetylcholine receptor M1 (Homo sapiens) (UniProt P11229); assay: M1 Eurofins-Cerep binding assay; set-up: ligand concentration 2 nM; settings: Compound concentration 10.0 uM
[21] = molecular target: Muscarinic acetylcholine receptor M2 (Homo sapiens) (UniProt P08172); assay: M2 Eurofins-Cerep binding assay; set-up: ligand concentration 2 nM; settings: Compound concentration 10.0 uM
[22] = molecular target: Muscarinic acetylcholine receptor M3 (Homo sapiens) (UniProt P20309); assay: M3 Eurofins-Cerep binding assay; set-up: ligand concentration 0.2 nM; settings: Compound concentration 10.0 uM
[23] = molecular target: MAO-A (amine oxidase [flavin-containing] A) (Homo sapiens, UniProt P21397); assay: Agonist activity in the Eurofins Cerep SafetyScreen44 (BI) against MAO-A_ANTAG by Scintillation counting (Cerep_443); set-up: scale not given: the % may be the effect or the level left; settings: rat; compound concentration 10 uM; target entry is the homologue from another species; read-out: % Ctrl
[24] = molecular target: Mu-type opioid receptor (Homo sapiens) (UniProt P35372); assay: mu (MOP) Eurofins-Cerep binding assay; set-up: ligand concentration 0.5 nM; settings: Compound concentration 10.0 uM
[25] = molecular target: Sodium-dependent noradrenaline transporter (Homo sapiens) (UniProt P23975); assay: norepinephrine transporter Eurofins-Cerep binding assay; set-up: ligand concentration 1 nM; settings: Compound concentration 10.0 uM
Homo sapiens = species on record: Homo sapiens; assay: Agonist activity in the Eurofins Cerep SafetyScreen44 (BI) against N_NEURO_A4B2 by Radioligand Binding (Cerep_3029); type: protein-complex assay; settings: Compound concentration 10.0 uM
[26] = molecular target: Vasopressin V1a receptor (Homo sapiens) (UniProt P37288); assay: V1a Eurofins-Cerep binding assay; set-up: ligand concentration 0.3 nM; settings: Compound concentration 10.0 uM
Neutrophil elastase [27] = molecular target: T2, Neutrophil elastase (Homo sapiens, UniProt P08246); assay: ELANE inhibitor assay (human). (Biochemical assay using purified commercial human ELANE and a fluorescent peptide substrate).
T2 sequence (P08246 whole entry): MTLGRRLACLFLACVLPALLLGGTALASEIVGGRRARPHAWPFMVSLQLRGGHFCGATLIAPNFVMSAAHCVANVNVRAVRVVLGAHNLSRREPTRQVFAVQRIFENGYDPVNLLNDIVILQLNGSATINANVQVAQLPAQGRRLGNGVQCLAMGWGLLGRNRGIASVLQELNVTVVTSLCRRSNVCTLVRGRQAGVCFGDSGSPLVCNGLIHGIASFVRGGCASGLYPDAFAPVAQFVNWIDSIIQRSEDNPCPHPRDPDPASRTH

Neutrophil elastase [28] = molecular target: T2, Neutrophil elastase; assay: Inhibition of zymosan-stimulated ELANE activity in human plasma
Caspase-9 (Homo sapiens) = Caspase-9 (Homo sapiens) (UniProt P55211); settings: Compound concentration 1.0 uM
Description: % Enzyme Activity of Caspase 9 in the Reaction Biology protease panel at 10.0 µM

[29] = molecular target: Type-1 angiotensin II receptor (Homo sapiens) (UniProt P30556); assay: AT1 Eurofins-Cerep binding assay
[30] = molecular target: Neuromedin-K receptor (Homo sapiens) (UniProt P29371); assay: Agonist activity in the Eurofins SafetyScreen44 (BI) against NK3/H by Radioligand Binding (Old_Cerep_26); settings: Compound concentration 10.0 uM
[31] = molecular target: Platelet-derived growth factor receptor (Mus musculus) (UniProt P05622+P26618); assay: Activity against PDGF/M in the Eurofins SafetyScreen44 (BI) (Old_Cerep_33); type: protein-complex assay; settings: Compound concentration 10.0 uM
[32] = molecular target: Neuropeptide Y receptor type 1 (Homo sapiens) (UniProt P25929); assay: Y1 Eurofins-Cerep binding assay; set-up: ligand concentration 0.025 nM; settings: Compound concentration 10.0 uM
Rattus norvegicus [33] = species on record: Rattus norvegicus; assay: Cl-channel (GABA-gated) Eurofins-Cerep binding assay; set-up: ligand concentration 3 nM; settings: Compound concentration 10.0 uM

Beta-1 adrenergic receptor (Homo sapiens), sequence (P08588 whole entry, looked up): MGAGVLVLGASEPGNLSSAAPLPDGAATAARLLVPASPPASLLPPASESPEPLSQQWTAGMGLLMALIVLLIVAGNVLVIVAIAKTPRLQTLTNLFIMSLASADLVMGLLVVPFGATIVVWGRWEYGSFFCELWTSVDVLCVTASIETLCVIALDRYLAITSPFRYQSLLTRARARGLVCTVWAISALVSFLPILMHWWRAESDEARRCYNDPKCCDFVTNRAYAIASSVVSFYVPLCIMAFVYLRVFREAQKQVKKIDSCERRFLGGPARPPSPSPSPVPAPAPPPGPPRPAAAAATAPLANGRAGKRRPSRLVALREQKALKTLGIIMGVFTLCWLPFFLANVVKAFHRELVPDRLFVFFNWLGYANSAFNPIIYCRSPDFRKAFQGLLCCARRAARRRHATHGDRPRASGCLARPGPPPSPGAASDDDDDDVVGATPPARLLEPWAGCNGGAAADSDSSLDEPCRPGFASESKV
Adenosine receptor A2a (Homo sapiens), sequence (P29274 whole entry): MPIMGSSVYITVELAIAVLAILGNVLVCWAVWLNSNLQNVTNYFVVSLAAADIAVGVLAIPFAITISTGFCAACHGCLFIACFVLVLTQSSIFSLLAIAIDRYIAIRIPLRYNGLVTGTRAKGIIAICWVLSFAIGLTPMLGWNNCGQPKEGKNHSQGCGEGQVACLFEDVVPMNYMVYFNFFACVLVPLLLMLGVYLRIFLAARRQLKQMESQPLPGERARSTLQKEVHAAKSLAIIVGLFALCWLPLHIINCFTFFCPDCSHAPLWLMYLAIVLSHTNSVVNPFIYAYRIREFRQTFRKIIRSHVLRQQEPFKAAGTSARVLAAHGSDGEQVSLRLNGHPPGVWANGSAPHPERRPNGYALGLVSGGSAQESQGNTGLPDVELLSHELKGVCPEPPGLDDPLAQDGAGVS
Beta-2 adrenergic receptor (Homo sapiens), sequence (P07550 whole entry, looked up): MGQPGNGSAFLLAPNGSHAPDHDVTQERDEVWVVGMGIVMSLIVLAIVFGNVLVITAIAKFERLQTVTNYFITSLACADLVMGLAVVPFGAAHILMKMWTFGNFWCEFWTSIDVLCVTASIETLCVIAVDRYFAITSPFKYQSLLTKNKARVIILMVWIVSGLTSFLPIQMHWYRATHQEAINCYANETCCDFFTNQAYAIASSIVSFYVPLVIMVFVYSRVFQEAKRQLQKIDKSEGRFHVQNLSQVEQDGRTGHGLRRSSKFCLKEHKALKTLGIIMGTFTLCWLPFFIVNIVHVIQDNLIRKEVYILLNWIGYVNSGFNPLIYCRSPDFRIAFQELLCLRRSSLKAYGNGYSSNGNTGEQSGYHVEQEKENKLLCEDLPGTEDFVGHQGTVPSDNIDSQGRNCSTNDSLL
Muscarinic acetylcholine receptor M2 (Homo sapiens), sequence (P08172 whole entry): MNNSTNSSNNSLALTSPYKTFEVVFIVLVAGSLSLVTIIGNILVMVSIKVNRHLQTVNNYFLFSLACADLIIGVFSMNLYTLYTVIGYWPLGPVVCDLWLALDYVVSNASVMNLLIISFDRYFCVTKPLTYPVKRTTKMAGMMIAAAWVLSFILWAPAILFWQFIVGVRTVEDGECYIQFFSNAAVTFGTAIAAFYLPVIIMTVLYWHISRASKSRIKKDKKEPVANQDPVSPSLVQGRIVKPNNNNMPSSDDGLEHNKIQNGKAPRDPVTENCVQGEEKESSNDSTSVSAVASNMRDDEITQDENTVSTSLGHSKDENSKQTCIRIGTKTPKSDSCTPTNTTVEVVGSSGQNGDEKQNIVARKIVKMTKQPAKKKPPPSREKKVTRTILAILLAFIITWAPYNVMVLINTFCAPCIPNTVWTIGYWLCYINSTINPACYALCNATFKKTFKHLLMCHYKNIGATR
5-hydroxytryptamine receptor 1A (Homo sapiens), sequence (P08908 whole entry): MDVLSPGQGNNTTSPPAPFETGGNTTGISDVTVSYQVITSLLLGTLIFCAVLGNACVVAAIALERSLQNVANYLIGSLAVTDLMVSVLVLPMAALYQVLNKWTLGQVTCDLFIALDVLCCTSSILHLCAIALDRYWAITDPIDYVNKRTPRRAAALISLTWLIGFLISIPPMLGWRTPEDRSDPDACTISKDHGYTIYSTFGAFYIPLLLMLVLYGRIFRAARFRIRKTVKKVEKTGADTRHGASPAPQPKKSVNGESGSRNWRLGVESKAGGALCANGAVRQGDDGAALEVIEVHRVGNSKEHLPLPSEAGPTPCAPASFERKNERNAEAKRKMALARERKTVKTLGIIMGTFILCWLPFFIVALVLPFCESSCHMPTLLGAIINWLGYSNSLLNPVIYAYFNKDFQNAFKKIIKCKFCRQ
5-hydroxytryptamine receptor 2B (Homo sapiens), sequence (P41595 whole entry): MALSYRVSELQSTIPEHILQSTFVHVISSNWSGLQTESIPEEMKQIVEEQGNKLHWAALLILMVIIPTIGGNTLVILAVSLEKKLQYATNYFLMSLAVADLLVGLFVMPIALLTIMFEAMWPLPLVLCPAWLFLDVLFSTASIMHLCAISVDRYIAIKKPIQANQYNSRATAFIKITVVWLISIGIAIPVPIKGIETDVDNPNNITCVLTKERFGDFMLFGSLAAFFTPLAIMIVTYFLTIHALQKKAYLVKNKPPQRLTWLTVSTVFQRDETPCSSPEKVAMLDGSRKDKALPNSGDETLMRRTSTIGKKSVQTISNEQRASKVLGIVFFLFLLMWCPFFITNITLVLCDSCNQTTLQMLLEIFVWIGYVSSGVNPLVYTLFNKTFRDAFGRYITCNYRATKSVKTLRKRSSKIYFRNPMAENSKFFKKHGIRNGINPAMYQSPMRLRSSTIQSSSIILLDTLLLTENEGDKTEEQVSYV
Sodium-dependent dopamine transporter (Homo sapiens), sequence (Q01959 whole entry): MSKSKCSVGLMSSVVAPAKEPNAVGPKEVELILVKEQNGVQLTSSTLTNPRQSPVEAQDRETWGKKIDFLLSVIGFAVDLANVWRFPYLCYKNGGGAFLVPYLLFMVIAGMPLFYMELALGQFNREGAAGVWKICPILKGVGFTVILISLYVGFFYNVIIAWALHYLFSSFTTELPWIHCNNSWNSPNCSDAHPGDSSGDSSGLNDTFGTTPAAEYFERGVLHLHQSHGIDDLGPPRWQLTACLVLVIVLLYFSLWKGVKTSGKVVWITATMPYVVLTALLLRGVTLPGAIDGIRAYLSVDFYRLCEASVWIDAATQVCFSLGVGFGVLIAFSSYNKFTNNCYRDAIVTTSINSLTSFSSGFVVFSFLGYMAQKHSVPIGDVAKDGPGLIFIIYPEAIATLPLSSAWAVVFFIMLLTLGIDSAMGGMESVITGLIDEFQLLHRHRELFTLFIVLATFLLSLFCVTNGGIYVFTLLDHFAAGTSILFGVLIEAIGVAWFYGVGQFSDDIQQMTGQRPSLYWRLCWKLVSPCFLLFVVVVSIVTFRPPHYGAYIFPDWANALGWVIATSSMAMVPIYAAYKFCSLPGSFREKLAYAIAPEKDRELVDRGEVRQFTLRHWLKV
Glucocorticoid receptor (Homo sapiens), sequence (P04150 whole entry): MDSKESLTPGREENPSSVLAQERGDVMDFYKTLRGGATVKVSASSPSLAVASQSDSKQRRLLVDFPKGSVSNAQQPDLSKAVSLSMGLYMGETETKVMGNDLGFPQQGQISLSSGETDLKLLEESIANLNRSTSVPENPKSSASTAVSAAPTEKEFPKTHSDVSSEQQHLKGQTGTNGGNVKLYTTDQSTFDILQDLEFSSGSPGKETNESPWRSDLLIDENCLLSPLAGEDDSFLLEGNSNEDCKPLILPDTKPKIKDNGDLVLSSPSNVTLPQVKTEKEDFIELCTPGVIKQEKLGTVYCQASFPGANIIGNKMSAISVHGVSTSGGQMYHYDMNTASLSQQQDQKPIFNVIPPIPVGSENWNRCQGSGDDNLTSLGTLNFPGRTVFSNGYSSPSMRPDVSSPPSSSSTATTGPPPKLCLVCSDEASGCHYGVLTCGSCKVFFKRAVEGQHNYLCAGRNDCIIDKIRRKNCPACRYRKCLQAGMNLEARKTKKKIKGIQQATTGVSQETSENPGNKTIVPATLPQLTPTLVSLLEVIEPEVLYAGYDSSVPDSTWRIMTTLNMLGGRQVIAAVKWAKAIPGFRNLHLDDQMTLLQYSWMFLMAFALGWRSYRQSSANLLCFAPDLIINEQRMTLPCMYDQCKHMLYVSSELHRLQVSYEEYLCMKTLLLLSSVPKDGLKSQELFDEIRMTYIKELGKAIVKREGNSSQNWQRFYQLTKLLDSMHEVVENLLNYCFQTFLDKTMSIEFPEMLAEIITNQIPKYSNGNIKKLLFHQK
Caspase-9 (Homo sapiens), sequence (P55211 1-315 limits assumed): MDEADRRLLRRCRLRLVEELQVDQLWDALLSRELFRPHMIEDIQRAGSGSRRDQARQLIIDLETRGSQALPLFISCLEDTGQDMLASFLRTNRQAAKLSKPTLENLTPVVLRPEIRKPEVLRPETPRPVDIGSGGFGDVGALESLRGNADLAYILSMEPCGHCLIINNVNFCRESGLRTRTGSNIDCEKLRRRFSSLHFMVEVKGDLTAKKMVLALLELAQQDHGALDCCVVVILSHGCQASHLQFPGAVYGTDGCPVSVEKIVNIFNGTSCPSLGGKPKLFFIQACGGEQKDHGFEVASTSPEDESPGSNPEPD
Caspase-9 (Homo sapiens), sequence (P55211 331-416 limits assumed): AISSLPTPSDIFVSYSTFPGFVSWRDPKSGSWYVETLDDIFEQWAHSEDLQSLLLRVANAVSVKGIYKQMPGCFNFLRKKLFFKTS
Endothelin-1 receptor (Homo sapiens), sequence (P25101 whole entry): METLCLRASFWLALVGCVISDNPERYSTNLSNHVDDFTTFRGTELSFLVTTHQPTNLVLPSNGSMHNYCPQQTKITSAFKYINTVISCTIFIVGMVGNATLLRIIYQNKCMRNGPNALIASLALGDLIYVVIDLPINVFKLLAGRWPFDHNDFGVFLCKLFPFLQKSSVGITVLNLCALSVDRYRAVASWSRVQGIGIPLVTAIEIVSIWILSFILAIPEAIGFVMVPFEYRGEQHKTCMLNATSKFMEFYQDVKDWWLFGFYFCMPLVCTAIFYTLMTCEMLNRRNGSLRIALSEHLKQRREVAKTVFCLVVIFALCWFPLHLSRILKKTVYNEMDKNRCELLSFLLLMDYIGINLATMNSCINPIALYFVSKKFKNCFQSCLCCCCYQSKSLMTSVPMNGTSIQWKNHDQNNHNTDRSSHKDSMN

Row | residual activity [1] | residual activity [3] | residual activity [4] | residual activity ([5]; Compound concentration 10.0 uM) | residual activity ([6]; Compound concentration 10.0 uM) | residual activity ([7]; Compound concentration 10.0 uM) | residual activity ([9]; Compound concentration 10.0 uM) | residual activity [10] | residual activity [12] | residual activity [13] | residual activity [14] | residual activity [15] | residual activity [16] | residual activity [17] | residual activity (Rattus norvegicus [18]) | residual activity [20] | residual activity [21] | SMILES | residual activity [2] | residual activity (Rattus norvegicus [8]; Compound concentration 10.0 uM) | residual activity [11] | also measured
1 | 91% | 97% | 81% | 109% | 89% | 101% | 97% | 100% | 98% | 100% | 95% | 96% | 101% | 105% | 101% | 114% | 103% | CC(C)(O)CNC(=O)N1C(=O)N(c2cccc(C(F)(F)F)c2)C2=C(C(=O)CC2)[C@@H]1c1ccc(C#N)cc1 | 111% | 101% | 99% | activity at 10 µM (hERG (KCNH2)): 96% (not active); residual activity [19]: 92%; residual activity [22]: 95%; activity at 10 µM [23]: 101% (not active); residual activity [24]: 104%; residual activity [25]: 95%; residual activity (Homo sapiens): 115%; residual activity [26]: 99%; IC50 (Neutrophil elastase [27]): 41 nM (not active); IC50 (Neutrophil elastase [28]): 492 nM (not active); % Enzyme Activity (relative to DMSO controls, average n=2) (Caspase-9 (Homo sapiens)): 92.6%
2 | 72% | 130% | 108% | 100% | 100% | 87% | 89% | 96% | 110% | 101% | 99% | 107% | 108% | 114% | 102% | 103% | 121% | CC(C)(O)CNC(=O)N1C(=O)N(c2cccc(C(F)(F)F)c2)C2=C(C(=O)CC2)[C@H]1c1ccc(C#N)cc1 | 69% | 119% | 89% | residual activity ([5]; Compound concentration 30.0 uM): 83%; residual activity ([6]; Compound concentration 30.0 uM): 100%; residual activity ([7]; Compound concentration 30.0 uM): 92%; residual activity (Rattus norvegicus [8]; Compound concentration 30.0 uM): 116%; residual activity ([9]; Compound concentration 30.0 uM): 89%; residual activity [22]: 84%; residual activity [24]: 82%; residual activity [25]: 98%; residual activity [26]: 102%; IC50 (Neutrophil elastase [27]): 0.5 nM (active); IC50 (Neutrophil elastase [28]): 1.2 nM (active); residual activity ([29]; Compound concentration 10.0 uM): 116%; residual activity ([29]; Compound concentration 30.0 uM): 92%; residual activity [30]: 102%; residual activity [31]: 103%; residual activity [32]: 107%; residual activity (Rattus norvegicus [33]): 90%; % Enzyme Activity (relative to DMSO controls, average n=2) (Caspase-9 (Homo sapiens)): 98.8%
